According to US20210171576A1, “METHODS FOR TREATING CANCER WITH ACYLDEPSIPEPTIDE ANALOGS” (priority 2018, published 2021):
Where a SMILES comes first, the peptide text is derived from it. Bridges are numbered along the chain shown (N, C = ends). [ ]: non-standard residue; d: D form. The star is where a group is joined. Phe(3,5-F2) = N[C@@H](Cc1cc(F)cc(F)c1)C(=O)O; Heptenoyl(2E) = CCCC/C=C/C(=O)*; aThr = C[C@H](O)[C@H](N)C(=O)O; Pip = O=C(O)[C@@H]1CCCCN1

Assays:
[1] = biological target: T1, human mitochondrial CIpP (HsCIpP) (Homo sapiens, UniProt Q16740); experiment: Screen of ADEP analogs against HsCIpP: relative degradation (RD) index, casein-FITC degradation relative to E. coli CIpAP; format: biochemical; design: key: casein-FITC degradation by HsClpP relative to EcClpAP
T1 construct: made in house; host or cells: E. coli SG1146 (BL21(DE3) ΔclpP::cat)
T1 sequence (Q16740 57-277): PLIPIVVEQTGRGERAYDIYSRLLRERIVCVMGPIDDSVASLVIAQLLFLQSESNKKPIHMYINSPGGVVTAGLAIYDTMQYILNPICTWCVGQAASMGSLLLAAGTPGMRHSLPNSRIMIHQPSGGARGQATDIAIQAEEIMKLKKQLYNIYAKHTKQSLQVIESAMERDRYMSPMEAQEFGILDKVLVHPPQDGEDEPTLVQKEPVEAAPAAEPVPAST
From the text: Structural analogs of acyldepsipeptide (ADEP) (Goodreid et al., 2016) that were previously developed as potential antibiotics against bacterial CIpP were screened and assessed for their ability to activate and dysregulate the protease activity of HsCIpP, by measuring their relative degradation (RD) index. Note that ADEP-28 was also previously reported by Carney et al. (2014). Details of the experimental protocol have been described in Leung et al., 2011. The RD index is defined as follows: […]
Δφ is the change in fluorescence after 6 hr of starting the reaction measured using 485 nm excitation and 535 nm emission, which primarily detects the signal from casein-FITC. E. coli CIpAP was used as a benchmark for maximum CIpP proteolytic activity. The CIpP in the numerator can be from any other organism. RD25 measurements refer to the measurement in the presence of 25 μM compound. All ADEP analogs were first screened at 25 μM, and their RD25 scores were calculated using the above formula and method as described in Leung et al., 2011 (FIG. 1A). Those that achieved RD25≥0.87 were screened a second time at 5 μM, followed by calculation of their RD5 scores. The top analogs with RD5≥0.74 were screened a third time at 1 μM, followed by calculation of their RD1 scores (FIG. 1B).
To identify ADEP analogs that allow HsCIpP to degrade folded proteins independent of HsCIpX+ATP (i.e., that activate or dysregulate HsCIpP), the inventors employed the in vitro screening method that was used for identifying small molecule activators of Escherichia coli CIpP (EcCIpP) (Leung et al., 2011). In this approach, the ability of HsCIpP to degrade FITC-labeled casein (casein-FITC) was measured and compared to the ability of EcCIpAP to degrade casein-FITC. This is quantitatively expressed as relative degradation (RD) index (Leung et al., 2011).

[2] = biological target: T2, HsCIpP (Homo sapiens, UniProt Q16740, P57S); experiment: Protease activity assay (casein-FITC degradation) with ADEP, independent of HsCIpX; format: biochemical; conditions: 3 μM HsCIpP, 10 μM casein-FITC, no HsCIpX; read-out: K0.5 (microscopic apparent dissociation constant), protease activity
T2 construct: 2x(His6-thrombin)-SUMO (N, cleaved yes); made in house; host or cells: E. coli (SG1146 stated for HsClpP; 'a similar protocol' for HsClpX)
T2 sequence (Q16740 57-277 P57S): as the sequence (Q16740 57-277) above, with P1S counted along it
Experimental: The protease activity of purified HsCIpP was assessed by monitoring the degradation of bovine milk casein labelled with fluorescein isothiocyanate (casein-FITC) (Sigma-Aldrich) in the presence of ADEP and/or purified HsCIpX. All reactions were carried out in 25 mM HEPES, pH 7.5, 35 mM KCl, 25 mM MgCl2, 0.03% Tween-20, 10% glycerol, and 1 mM DTT, supplemented with 16 mM creatine phosphate and 300 μM ATP. HsCIpP was used at 3 μM (final monomeric concentration) and casein-FITC was added at the final concentration of 10 μM. 13 U of creatine phosphokinase (Sigma-Aldrich) was also added for ATP regeneration. DMSO was present at 1% (v:v) final concentration in the experiments that involve the use of ADEP analogs. All reactions were carried out with 150 μL of the reaction mix per well in a 96-well black flat-bottom plate at 37° C. Degradation of casein-FITC and subsequent release of the free FITC moiety was monitored by fluorescence with λex=494 nm and λem=518 nm using the EnSpire 2300 Multilabel Reader set to perform a reading every 40 s with 20 flashes. A total of 100 readings were collected in each experiment. […]
The effect of ADEP in activating HsCIpP was assessed via the degradation of casein-FITC by HsCIpP independent of HsCIpX. […] Initial rates data were collected and analyzed using the Hill equation above to determine Vmax, h and K0.5 for each ADEP analog. […]

[3] = tested on: HEK293 T-REx WT cells; experiment: 3D Structured Illumination Microscopy (3DSIM) of mitochondrial morphology; format: cell-based, human; conditions: 2 μM
Experimental: HEK293 T-REx WT and CLPP^'1/− cells were seeded on coverslips (Electron Microscopy Sciences) pre-coated with poly-D-lysine hydrobromide (Sigma-Aldrich) in a 12-well culture plate (Falcon). Cells were grown for 24 hours to allow adhesion, followed by treatment with 2 μM ADEP-41 or DMSO in the same manner as described in previous sections, for 24 or 72 hours. At these time points, the original media was removed, and cells were incubated for 30 minutes at 37° C., 5% CO2 with 200 nM MitoTracker Red CMXRos (Molecular Probes) in Opti-MEM™ Reduced Serum Medium (Gibco). Cells were then washed once with PBS and fixed with 4% (v/v) paraformaldehyde (Electron Microscopy Sciences) in PBS for 20 minutes at room temperature.
The fixed cells were then washed twice with PBS, permeabilized with 0.2% (v/v) Triton X-100 (BioShop) in PBS for 10 minutes at room temperature and incubated with 2 μg/mL Hoechst 33342 (Molecular Probes) in PBS for 10 minutes at room temperature to counterstain nuclei. Coverslips were then washed three times with PBS+0.05% (v/v) Tween-20 and mounted on microscope glass slides (VWR) using 0.5% (w/v) propyl gallate (Sigma-Aldrich) dissolved in glycerol as the mounting medium.
3DSIM data were collected on the ELYRA PS.1 super resolution microscope (Carl Zeiss Microscopy) using a 63× (1.4 NA) Plan-Apochromatic oil immersion objective (Carl Zeiss Microscopy) and a 1.6× Optovar. […]

[4] = tested on: HeLa T-REx cells; experiment: Cytotoxicity, SRB staining
Experimental: (§1) To assess the cytotoxicity of ADEP analogs, cells were seeded at 1×10^3 or 2×10^3 cells in 50 μL per well on sterile 96-well flat-bottom tissue culture plates (VWR). Growth media without any cells was included as a control. Cells were grown for at least 24 hours to allow proper adherence to the growth surface. Afterwards, ADEP analogs were serially diluted and introduced to the tissue cultures via fresh growth media at 50 μL per well. Inclusion of activators/DMSO brought the final DMSO concentration of the growth media up to a maximum of 0.5% (v:v). […] A total of four independent replicates were prepared for each cell line and for each growth condition used. Cells were grown in the presence of ADEP/DMSO for 72 hours.
(§2) To assess cell survival, live adherent cells were fixed with 10% (w:v) trichloroacetic acid (TCA) at 4° C. for 1-2 hours. The tissue culture plates were then rinsed with water to remove dead cells and cell debris and air-dried overnight. […] Absorbance at λ=510 nm (A510) was then measured using the EnSpire 2300 Multilabel Reader. […]
(§3) To determine the IC50 for the ADEP analogs, relative cell viability (RCV) values were calculated by normalizing the A510 readings in ADEP-containing sample to the DMSO-only control. […]

[5] = tested on: U2OS cells; experiment: Cytotoxicity, SRB staining
Experimental: as §1, §2, §3

CCCC/C=C/C(=O)N[C@@H](Cc1cc(F)cc(F)c1)C(=O)N[C@@H]1C(=O)N2CCC[C@H]2C(=O)N2CCCC[C@H]2C(=O)N[C@@H](C)C(=O)N2CCC[C@H]2C(=O)O[C@H]1C [ADEP-41] ({Heptenoyl(2E)}-[Phe(3,5-F2)][aThr]P[Pip]AP; ester 2-C)
Hs RD1 ([1]; RD value at 1 μM of the ADEP analog): 0.79
Hs RD5 ([1]; RD value at 5 μM of the ADEP analog): 0.93
Hs RD25 ([1]; RD value at 25 μM of the ADEP analog, measure of ability to activate HsCIpP): 0.96
Kd [2]: 0.12 µM
mitochondrial fragmentation ([3]; 24 hours): clear signs of mitochondrial fragmentation
mitochondrial fragmentation ([3]; 72 hours): very significant
IC50 compared across cell lines [4]: similar
IC50 compared across cell lines [5]: similar
